Measured values reported in US6737383B1, “Herbicidal oxadiazolidines” (priority 1999, dated 2004).

Legend:
[1] = test system: blackgrass; assay: Test B pre/postemergence blackgrass; assay type: in vivo, Alopecurus myosuroides
How it was run: (§1)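 Test chemicals in a non-phytotoxic solvent mixture with surfactant were sprayed preemergence onto planted seeds and postemergence onto plants 2 to 18 cm tall (1- to 4-leaf stage). After twelve to sixteen days in a greenhouse, injury was visually rated against untreated controls from 0 (no effect) to 10 (complete control).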

[2] = test system: surinam grass; assay: Test B pre/postemergence surinam grass; assay type: in vivo, Brachiaria decumbens
How it was run: as §1

[3] = test system: cocklebur; assay: Test B pre/postemergence cocklebur; assay type: in vivo, Xanthium strumarium
How it was run: as §1

[4] = test system: corn; assay: Test B pre/postemergence corn; assay type: in vivo, Zea mays
How it was run: as §1

[5] = test system: crabgrass; assay: Test B pre/postemergence crabgrass; assay type: in vivo, Digitaria sanguinalis
How it was run: as §1

[6] = test system: giant foxtail; assay: Test B pre/postemergence giant foxtail; assay type: in vivo, Setaria faberii
How it was run: as §1

[7] = test system: pigweed; assay: Test B pre/postemergence pigweed; assay type: in vivo, Amaranthus retroflexus
How it was run: as §1

[8] = test system: rape; assay: Test B pre/postemergence rape; assay type: in vivo, Brassica napus
How it was run: as §1

[9] = test system: soybean; assay: Test B pre/postemergence soybean; assay type: in vivo, Glycine max
How it was run: as §1

[10] = test system: sugar beet; assay: Test B pre/postemergence sugar beet; assay type: in vivo, Beta vulgaris
How it was run: as §1

[11] = test system: wheat; assay: Test B pre/postemergence wheat; assay type: in vivo, Triticum aestivum
How it was run: as §1

[12] = test system: purple nutsedge; assay: Test B pre/postemergence purple nutsedge; assay type: in vivo, Cyperus rotundus
How it was run: as §1

[13] = test system: rice; assay: Test B flood test rice; assay type: in vivo, Oryza sativa
How it was run: (§2)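 Flood test on plants grown to the 2-leaf stage; treated plants kept in greenhouse twelve to sixteen days, then visually rated against controls on a 0 (no effect) to 10 (complete control) scale.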

[14] = test system: smallflower flatsedge; assay: Test B flood test smallflower flatsedge; assay type: in vivo, Cyperus difformis
How it was run: as §2

[15] = test system: duck salad; assay: Test B flood test duck salad; assay type: in vivo, Heteranthera limosa
How it was run: as §2

[16] = test system: bamyardgrass; assay: Test B flood test barnyardgrass; assay type: in vivo, Echinochloa crus-galli
How it was run: as §2

[17] = Preemergence, Rate 62 g/ha, scale of 0 to 10 where 0 is no effect and 10 is complete control
[18] = Preemergence, Rate 250 g/ha, scale of 0 to 10 where 0 is no effect and 10 is complete control
[19] = Preemergence, Rate 500 g/ha, scale of 0 to 10 where 0 is no effect and 10 is complete control
[20] = Rate 62 g/ha, Postemergence, scale 0 to 10 (0 no effect, 10 complete control)
[21] = Rate 125 g/ha, Postemergence, scale of 0 to 10 where 0 is no effect and 10 is complete control
[22] = Rate 250 g/ha, Postemergence, scale of 0 to 10 where 0 is no effect and 10 is complete control
[23] = Rate 500 g/ha, Postemergence, scale 0 to 10, 0 no effect, 10 complete control
[24] = Rate 62 g/ha, headed Pre-emergence (flood test species), scale 0 to 10 (0 no effect, 10 complete control)
[25] = Rate 125 g/ha, Pre-emergence, flood test species, scale 0 to 10 where 0 is no effect and 10 is complete control
[26] = Rate 250 g/ha, Pre-emergence, flood-test species, scale 0 to 10, 0 is no effect, 10 is complete control
[27] = Rate 500 g/ha, Pre-emergence, flood test species, scale 0 to 10 (0 no effect, 10 complete control)

CSCCn1c(=O)on(C(=O)N(c2ccc(F)cc2)C(C)C)c1=O [Compound 314]
Blackgrass plant response rating [1, 17]: 5
Blackgrass plant response rating (0 to 10 scale) ([1]; Preemergence, Rate 125 g/ha): 7
Blackgrass plant response rating [1, 18]: 10
Blackgrass plant response rating [1, 19]: 10
Blackgrass plant response rating [1, 20]: 2
Blackgrass plant response rating [1, 21]: 4
Plant response rating, Blackgrass [1, 22]: 5
Blackgrass plant response rating [1, 23]: 5
B. signalgrass plant response rating [2, 17]: 0
B. signalgrass plant response rating (0 to 10 scale, 0 is no effect, 10 is complete control) ([2]; Preemergence, Rate 125 g/ha): 2
B. signalgrass plant response rating [2, 18]: 6
B. signalgrass plant response rating [2, 19]: 6
B. signalgrass plant response rating [2, 20]: 0
B. signalgrass plant response rating [2, 21]: 0
Plant response rating, B. signalgrass [2, 22]: 0
B. signalgrass plant response rating [2, 23]: 3
Cocklebur plant response rating [3, 17]: 0
Cocklebur plant response rating (0 to 10 scale) ([3]; Preemergence, Rate 125 g/ha): 0
Cocklebur plant response rating [3, 18]: 0
Cocklebur plant response rating [3, 19]: 0
Cocklebur plant response rating [3, 20]: 0
Plant response rating, Cocklebur [3, 22]: 1
Cocklebur plant response rating [3, 23]: 1
Corn plant response rating [4, 17]: 0
Corn plant response rating (0 to 10 scale) ([4]; Preemergence, Rate 125 g/ha): 0
Corn plant response rating [4, 18]: 0
Corn plant response rating [4, 19]: 0
Corn plant response rating [4, 20]: 0
Corn plant response rating [4, 21]: 0
Plant response rating, Corn [4, 22]: 0
Corn plant response rating [4, 23]: 0
Crabgrass plant response rating [5, 17]: 1
Crabgrass plant response rating (0 to 10 scale) ([5]; Preemergence, Rate 125 g/ha): 3
Crabgrass plant response rating [5, 18]: 7
Crabgrass plant response rating [5, 19]: 8
Crabgrass plant response rating [5, 20]: 0
Crabgrass plant response rating [5, 21]: 0
Plant response rating, Crabgrass [5, 22]: 4
Giant foxtail plant response rating [6, 17]: 3
Giant foxtail plant response rating (0 to 10 scale) ([6]; Preemergence, Rate 125 g/ha): 6
Giant foxtail plant response rating [6, 18]: 7
Giant foxtail plant response rating [6, 19]: 10
Giant foxtail plant response rating [6, 20]: 0
Giant foxtail plant response rating [6, 21]: 0
Plant response rating, Giant foxtail [6, 22]: 3
Redroot pigweed plant response rating [7, 17]: 0
Redroot pigweed plant response rating (0 to 10 scale) ([7]; Preemergence, Rate 125 g/ha): 2
Redroot pigweed plant response rating [7, 18]: 2
Redroot pigweed plant response rating [7, 19]: 9
Redroot pigweed plant response rating [7, 20]: 0
Redroot pigweed plant response rating [7, 21]: 0
Plant response rating, Redroot pigweed [7, 22]: 0
Rape plant response rating [8, 17]: 0
Rape plant response rating [8, 18]: 3
Rape plant response rating [8, 19]: 7
Rape plant response rating [8, 20]: 0
Rape plant response rating [8, 21]: 0
Plant response rating, Rape [8, 22]: 0
Soybean plant response rating [9, 17]: 0
Soybean plant response rating (0 to 10 scale) ([9]; Preemergence, Rate 125 g/ha): 0
Soybean plant response rating [9, 18]: 0
Soybean plant response rating [9, 19]: 0
Soybean plant response rating [9, 20]: 2
Soybean plant response rating [9, 21]: 3
Plant response rating, Soybean [9, 22]: 4
Sugarbeets plant response rating [10, 17]: 0
Sugarbeets plant response rating (0 to 10 scale) ([10]; Preemergence, Rate 125 g/ha): 2
Sugarbeets plant response rating [10, 18]: 2
Sugarbeets plant response rating [10, 19]: 6
Sugarbeets plant response rating [10, 20]: 0
Sugarbeets plant response rating [10, 21]: 0
Plant response rating, Sugarbeets [10, 22]: 0
Wheat plant response rating [11, 17]: 0
Wheat plant response rating (0 to 10 scale) ([11]; Preemergence, Rate 125 g/ha): 0
Wheat plant response rating [11, 18]: 0
Wheat plant response rating [11, 19]: 3
Wheat plant response rating [11, 20]: 0
Wheat plant response rating [11, 21]: 0
Plant response rating, Wheat [11, 22]: 3
Nutsedge plant response rating [12, 17]: 0
Nutsedge plant response rating [12, 19]: 0
Nutsedge plant response rating [12, 20]: 0
Nutsedge plant response rating [12, 21]: 0
Plant response rating, Nutsedge [12, 22]: 0
Rice plant response rating [13, 24]: 0
Rice plant response rating [13, 25]: 0
Rice plant response rating [13, 26]: 0
Rice plant response rating [13, 27]: 0
S. Flatsedge plant response rating [14, 24]: 0
S. Flatsedge plant response rating [14, 25]: 0
S. Flatsedge plant response rating [14, 26]: 0
S. Flatsedge plant response rating [14, 27]: 0
Ducksalad plant response rating [15, 24]: 0
Ducksalad plant response rating [15, 25]: 0
Ducksalad plant response rating [15, 26]: 0
Ducksalad plant response rating [15, 27]: 0
Barnyardgrass plant response rating [16, 24]: 0
Barnyardgrass plant response rating [16, 25]: 0
Barnyardgrass plant response rating [16, 26]: 0
Barnyardgrass plant response rating [16, 27]: 0
